From patent US12504371B2, “System and method of dynamic micro-optical coherence tomography for mapping cellular functions” (The General Hospital Corporation, priority 2020, dated 2025)

Legend:
[1] = tested on: freshly excised murine liver; experiment: d-μOCT imaging of freshly excised murine liver in blebbistatin; format: cell-based; details: 30 μM blebbistatin, t=40 minutes vs t=0; Red 0-0.08 Hz, Green 3.98-20 Hz
Text: d-μOCT enables high contrast, subcellular, cross-sectional motility imaging of intact human and animal tissues ex vivo. d-μOCT data (FIGS. 7, 9-16) were obtained using a μOCT benchtop system microscope that employs a supercontinuum-illuminated, common path, spectral domain OCT (SDOCT) system to obtain cross-sectional images with a resolution of 2 μm×2 μm (lateral)×1 μm (axial). The depth of focus was 300 μm, extended by annular apodization of the sample arm's objective lens. Images were acquired at an A-line (depth resolved reflectivity profile) rate of 20 KHz and spanned 1 mm laterally. All tissues samples were imaged fresh in culture media (10% FBS/DMEM+1% pen-strep) at 25° C. Two scan modes were used: 1) N=1000 images (512 A-lines/image) acquired sequentially over a period of 25 seconds (FIG. 8, scan mode 1) or 2) N=1000 A-lines acquired sequentially at each lateral scan point (FIG. 8, scan mode 2). Following local elastic unwarping to remove bulk motion caused by evaporation or vibration, a power spectrum estimate (periodogram) was computed on a pixel-per-pixel basis using Welch's method and frequency normalization. For scan mode 1, to represent the data in a single image, low (−0-0.1 Hz), middle (−0.5-0.7 Hz) and high (−4-20 Hz) frequency component images were merged into the RGB channels of a 24-bit color image. […]

MC38 murine tumor = experiment: d-μOCT and CC3 IHC of freshly excised MC38 tumor treated with a drug-containing IMD; format: in vivo; details: IMD containing doxorubicin, 6 hrs; mid frequency Blue 0.47-0.63 Hz
Protocol: Dynamic-μOCT has been applied to human biopsies and chemotherapy-treated tumors grown in mouse models. In human biopsies, it is possible to use d-μOCT to distinguish microscopic features (e.g. cell nuclei, organelles, and cell membranes), cellular structures (e.g. squamous, glandular, inflammatory cells), and different cell types that were not evident in corresponding regular μOCT images. Ex vivo experiments were also performed using tumors grown with human cell lines. Custom microdevices containing small amounts of chemotherapeutic drugs were inserted into the tumors. For example, effects of intra-tumoral apoptosis were distinguished with d-μOCT and confirmed with histology images stained with cleaved caspase-3 (CC3), an apoptosis marker.
Panel (B) is from the same location in the sample. d-μOCT color codes: Red 0-0.08 Hz, Blue 0.47-0.63 Hz, Green 3.98-20 Hz. Bars, 200 μm.
d-μOCT enables high contrast, subcellular, cross-sectional motility imaging of intact human and animal tissues ex vivo. d-μOCT data (FIGS. 7, 9-16) were obtained using a μOCT benchtop system microscope that employs a supercontinuum-illuminated, common path, spectral domain OCT (SDOCT) system to obtain cross-sectional images with a resolution of 2 μm×2 μm (lateral)×1 μm (axial). The depth of focus was 300 μm, extended by annular apodization of the sample arm's objective lens. […]

Compound | change in d-μOCT intracellular motion frequency content [1] | d-μOCT frequency content compared with cleaved caspase-3 (CC3) IHC (MC38 murine tumor)
Cc1ccc2c(c1)C(=O)C1(O)CCN(c3ccccc3)C1=N2 (centres unmarked) [blebbistatin] | dramatic reduction in high frequency (green) and increase in low frequency (red) intracellular motion | –
COc1cccc2c1C(=O)c1c(O)c3c(c(O)c1C2=O)C[C@@](O)(C(=O)CO)C[C@@H]3O[C@H]1C[C@H](N)[C@H](O)[C@H](C)O1 [doxorubicin] | – | diffuse region of mid-frequency content (arrow) that mirrors cleaved caspase-3 (CC3) IHC
